Measurements reported in US20240075093A1, “COMPOSITIONS AND METHODS OF TREATING A PI3K MEDIATED DISEASE” (VIRGINIA TECH INTELLECTUAL PROPERTIES, INC., priority 2020, published 2024).
Where no end group is shown, it is not given here.

Experiments:
[1] = test system: U87MG cells; experiment: MTS cell viability assay; format: cell-based, human; details: 20 μM TGX-221/50 μM TMZ plus αCT1
Experimental: Cell viability was measured by the MTS assay. P values were determined using the student t test or one-way ANOVA. Error bars represent three independent experiments.
Cell viability was determined using the MTS viability assay. The vehicle DMSO was the control and set as 100%. Treated cells were normalized to DMSO-treated cells. […] (FIG. 43D) Scores of Excess Over Bliss in FIG. 43C calculated using the Bliss Independence model. One-way ANOVA and student t test were used to determine statistical significance.
Cell viability was determined by the MTS cell viability assay (Promega) as described previously 21,24-27. In brief, 250 to 1,000 cells were plated in the wells of a 96-well plate-based upon the cell growth rate. Because the drug treatment usually takes 6-7 days, fast-growing cells could be over-grown if plated at a high cell density. For αCT1 treatment experiments, Applicant intended to plate cells at a low density to minimize the formation of gap junctions, and thus, more Cx43-hemichannels can be present. […] At each hour time point, the absorbance at 490 nm was measured using a FilterMax F3 microplate reader (Molecular Devices, LLC) according to the manufacturer's instructions. Percent cell viability was obtained by dividing the absorbance of treatment groups to those of untreated and respective vehicle control groups.

[2] = half-life of αCT1; format: in vitro ADME; details: cell culture treatment
[3] = test system: other melanoma cells; experiment: melanoma cell viability (CellTiter Blue); format: cell-based; details: 50 μM Selectide-18, 6 days, daily repeated dosing
Experimental: (§1) (FIG. 52A) Cells were treated with 10 μM Selectide-18-FITC for 1 h and imaged immediately or after 96h. (FIG. 52B) Selectide-18-FITC in melanoma cells were imaged at different times. FITC was quantified using Image J and FITC intensities at different times were normalized with that at 1 h. Half-life was calculated using GraphPad. (FIG. 52C) UACC-62, MelST, or MeWo cells were treated with 50 μM of Selectide-18 for 4 days with daily repeated dosing. (FIG. 52D) MelST or melanoma cells were treated with 50 μM of Selectide-18 for 6 days with daily repeated dosing. Cell viability was measured using Cell-Titer Blue. (FIG. 52E) MelST, UACC-62, or MeWo cells were treated with Scramble or Selectide-18 at different doses. IC50s were calculated using GraphPad. (FIG. 52F) Nod scid mice bearing UACC-62 subcutaneous tumors were treated with Selectide-18 (3 mg/kg) intratumoral injection/daily) for 16 days. Tumors were measured using a caliper and tumor volumes were calculated as (length×width2))/2. Student t test or ANOVA was used to determine P values. ns: not significant; **: P<0.01; ***P<0.001.

[4] = test system: PI3K in MeWo cells; experiment: PI3K activity after Selectide-18; format: cell-based; details: 50 μM, 4 days, daily repeated dosing
Experimental: as §1

[5] = test system: PI3K in UACC-62 cells; experiment: PI3K activity after Selectide-18; format: cell-based; details: 50 μM, 4 days, daily repeated dosing
Experimental: as §1

[6] = test system: PI3K in MelST cells; experiment: PI3K activity after Selectide-18; format: cell-based; details: 50 μM, 4 days, daily repeated dosing
Experimental: as §1

[7] = test system: p110β^hyper cells; experiment: melanoma cell viability (CellTiter Blue); format: cell-based; details: 50 μM Selectide-18, 6 days, daily repeated dosing
Experimental: (§2) (FIG. 49A) Immunoblotting of p110s and signaling molecules. 3-actin (ACTB) was used as the loading control. (FIG. 49B) Summary of genetic mutations and protein levels in melanoma cells. Information regarding hot spot mutations was retrieved from e.g., DepMap. (FIG. 49C) Cells were treated with 0-40 μM of inhibitors. Cell viability was measured using CellTiter Blue. IC50s were calculated using Graphpad.
as §1

[8] = test system: MDA-MB-435S cells; experiment: melanoma cell viability (CellTiter Blue); format: cell-based; details: 50 μM, 6 days, daily repeated dosing
Experimental: as §2, §1

[9] = test system: melanocyte MelST; format: cell-based
Experimental: as §2, with “(FIG. 49C) Cells were treated with 0-40 μM of inhibitors.” left out
as §1, with “Student t test or ANOVA was used to determine P values. ns: not significant; **: P<0.01; ***P<0.001.” left out

[10] = test system: UACC-62 xenografts; experiment: UACC-62 subcutaneous xenograft; format: in vivo, Nod scid mice; details: 3 mg/kg, intratumoral injection daily, 16 days
Experimental: as §1

[11] = intracellular half-life of Selectide-18-FITC; format: cell-based; details: human, UACC-62 melanoma cells (intracellular); FITC intensity normalized to 1 h; read-out: half-life (HL) in cells (converted)
Experimental: as §1

[12] = uptake and intracellular half-life of Selectide-18-FITC; format: cell-based; details: human, SKMEL-147 melanoma cells (intracellular); FITC intensity normalized to 1 h; read-out: half-life (HL) in cells (converted)
Experimental: as §1

Sequence | cytotoxic effect of TMZ/TGX-221 double combination upon addition of αCT1 [1] | half-life [2] [min] | cell viability [3] | PI3K activity [4] | PI3K activity [5] | PI3K activity [6] | cell viability [7] | sensitivity to Selectide-18 [8] | IC50 [9] [mM] | in vivo growth of xenografts [10] | half-life [11] [days] | half-life [12] [days]
RQPKIWFPNRRKPWKKRPRPDDLEI [αCT1] | greatly increased the cytotoxic effect | ~2880 | – | – | – | – | – | – | – | – | – | –
TKKSTKTINPSKYQTIRK [Selectide-18] | – | – | without affecting | not | inactivated PI3K | not | suppressed the viability | sensitive | ~2 | blocked the in vivo growth | 3.21 | 5.75
